{"source": "paper PMC8776092", "about": "“A Toxoplasma gondii Oxopurine Transporter Binds Nucleobases and Nucleosides Using Different Binding Modes” (International Journal of Molecular Sciences, 2022)", "key": {"[1]": {"target": "T1, Tg244440 (Toxoplasma gondii, UniProt A0A125YNC9)", "T1 sequence (A0A125YNC9 1-462)": "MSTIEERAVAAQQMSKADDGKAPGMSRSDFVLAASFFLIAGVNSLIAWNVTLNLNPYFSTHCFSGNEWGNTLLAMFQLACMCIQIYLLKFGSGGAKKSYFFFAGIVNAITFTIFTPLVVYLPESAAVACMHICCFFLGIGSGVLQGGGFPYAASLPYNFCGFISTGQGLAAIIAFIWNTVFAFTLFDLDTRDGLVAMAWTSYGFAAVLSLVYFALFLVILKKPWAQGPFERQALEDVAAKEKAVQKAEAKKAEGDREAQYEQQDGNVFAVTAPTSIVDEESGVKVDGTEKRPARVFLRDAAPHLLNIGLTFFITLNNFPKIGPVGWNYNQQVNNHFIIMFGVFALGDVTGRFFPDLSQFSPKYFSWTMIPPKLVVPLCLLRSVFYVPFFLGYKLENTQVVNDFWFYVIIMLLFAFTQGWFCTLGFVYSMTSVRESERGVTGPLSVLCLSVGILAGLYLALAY", "test": "[3H]-guanine uptake and its inhibition in T. brucei TbNB-KO procyclics expressing Tg244440 (clone F5)", "format": "cell-based", "conditions": "for Ki: competition with 50 nM [3H]-guanine, 30 s, Cheng-Prusoff; for ΔG^0 (Gibbs free energy of interaction): calculated from Km or Ki, ΔG0 = −RTln(Ki); for Summation of the Gibbs free energy of the proposed interactions (binding model), Σ: substrate binding model, Figure 5, for adenosine base group only; for Rate of [3H]-guanine uptake, +Tg244440: clone F5; for Sum of δ(ΔG^0) for the 7-deaza and 9-deaza analogues: analogues of the named nucleobase", "description": "(§1) Briefly, PCF cells of T. brucei in logarithmic growth were harvested by centrifugation at 1000× g for 10 min, washed twice in AB and then resuspended in fresh buffer at a final density of 10^8 cells/mL. […] Immediately after finishing the assay, all tubes were flash-frozen in liquid nitrogen and the cell pellets were cut into scintillation vials and lysed with a solution of 2% SDS for one hour under agitation. Then, 3 mL of scintillation fluid (Scintilogic U, Lablogic) was added to each vial and left agitating overnight on a rocking platform. The next morning, the vials were vigorously shaken to ensure optimal mixing and the scintillation was measured in a 300SL (Hidex) scintillation counter. All assays were carried out in triplicate. All experimental data such as Km, Ki and Vmax values are the average and SEM of at least three separate experiments, each in triplicate, unless otherwise indicated.\n(§2) Background scintillation was measured in vials containing no cells or radiolabeled substrate, and counts associated with extracellular radiolabel were calculated from samples where cells were briefly incubated with the same concentration of radiolabel, but in the presence of saturating concentrations of non-radiolabeled substrate before centrifugation through oil. The average of the three control replicates was subtracted from each data point."}, "[2]": {"tested_on": "T. gondii", "conditions": "cited from earlier work"}, "[3]": {"target": "TgAT2", "set-up": "method as in PMID 12865082", "conditions": "cited from earlier work; for Km: tachyzoites"}, "[4]": {"tested_on": "Tg244440", "format": "cell-based, Toxoplasma gondii", "conditions": "0.1 μM [3H]-permeant, 60 s, clones B11, F5 and G10", "description": "(§3) Figure 2 Uptake of radiolabelled nucleosides and nucleobases by in three clonal lines of T. brucei NB-KO procyclics, expressing Tg244440 in pHD1336. EV, empty vector control. Radiolabel concentration was 0.1 µM and uptake was measured over 60 s, in triplicate (average and SEM shown). Statistically significant differences between the control and the Tg244440-expressing cells were established using Student’s unpaired t-test. *, p < 0.05, **, p < 0.01, ***, p < 0.001.\nas §1"}, "[5]": {"tested_on": "TgAT1", "conditions": "cited from earlier work"}, "[6]": {"target": "T1, Tg244440", "conditions": "Xenopus laevis oocytes, 10 µM [3H]-adenosine; cited from earlier work"}, "[7]": {"tested_on": "human adenosine kinase", "set-up": "method as in PMID 23592612, PMID 6363411, PMID 10722669, PMID 8982282", "conditions": "cited from earlier work"}, "[8]": {"tested_on": "human adenosine deaminase", "set-up": "method as in PMID 23592612, PMID 6363411, PMID 10722669, PMID 8982282", "conditions": "cited from earlier work"}, "[9]": {"tested_on": "hENT1", "set-up": "method as in PMID 23592612, PMID 6363411, PMID 10722669, PMID 8982282", "conditions": "cited from earlier work"}, "[10]": {"tested_on": "TbNBT-KO cells transfected with the empty vector (EV)", "test": "[3H]-guanine and [3H]-hypoxanthine uptake in TbNBT-KO cells transfected with the empty vector (EV)", "format": "cell-based, Trypanosoma brucei", "conditions": "for Rate of [3H]-guanine uptake, EV / Rate of [3H]-hypoxanthine uptake, EV: empty vector cells", "description": "as §1, §2"}, "[11]": {"target": "T1, Tg244440", "format": "cell-based", "conditions": "0.1 μM [3H]-permeant, 60 s, clones B11, F5 and G10", "description": "as §3, §1"}, "[12]": {"target": "T1, Tg244440", "conditions": "clone F5", "description": "as §1, §2"}, "[13]": {"tested_on": "TgNBT1", "conditions": "tachyzoites; cited from earlier work"}, "[14]": {"tested_on": "inosine transporter", "conditions": "tachyzoites; read-out: apparent Km; cited from earlier work"}, "[15]": {"conditions": "[Permeant] 25 μM (unlabelled guanine to saturate the transporter)"}, "[16]": {"conditions": "[Permeant] 0.1 μM, over 60 s, listed as hypoxanthine"}, "[17]": {"conditions": "[Permeant] 1000 μM (unlabelled hypoxanthine to saturate the transporter)"}}, "note": "Where two headings read alike, the source gives them in different places."}
{"smiles": "OC[C@@H]1CC[C@H](n2cnc3c(O)ncnc32)O1", "note": "[2′,3′-dideoxyinosine]", "values": [{"measurement": "Ki", "setting": "[1]; Ki", "result": "698 ± 52", "unit": "µM"}, {"measurement": "ΔG^0 (Gibbs free energy of interaction)", "setting": "[1]", "result": -4.3, "unit": "kcal/mol"}, {"measurement": "δ(ΔG^0) relative to Inosine", "setting": "[1]; relative to Inosine", "result": 3.06, "unit": "kcal/mol"}, {"measurement": "Activity against T. gondii (in words)", "setting": "[2]", "result": "active in vitro and in vivo"}]}
{"smiles": "Nc1ncnc2c1ncn2[C@@H]1O[C@H](CO)[C@@H](O)[C@@H]1O", "note": "[Adenine arabinoside (Ara-A), Adenine arabinoside]", "values": [{"measurement": "Affinity for Tg244440 (in words)", "setting": "[1]", "result": "low affinity"}, {"measurement": "ΔG^0 (Gibbs free energy of interaction)", "setting": "[1]", "result": -4.78, "unit": "kcal/mol"}, {"measurement": "Ki", "setting": "[1]; read-out: Ki", "result": "310 ± 14", "unit": "µM"}, {"measurement": "δ(ΔG^0) relative to Adenosine", "setting": "[1]; relative to Adenosine", "result": 0.896, "unit": "kcal/mol"}, {"measurement": "Ki", "setting": "[3]", "result": 2.9, "unit": "µM"}, {"measurement": "Activity against T. gondii (in words)", "setting": "[2]", "result": "moderately active"}]}
{"smiles": "Nc1ncnc2c1ncn2[C@@H]1O[C@H](CO)[C@@H](O)[C@H]1O", "note": "[Adenosine]", "values": [{"measurement": "Affinity for Tg244440 (in words)", "setting": "[1]", "result": "Low affinity"}, {"measurement": "Ki", "setting": "[1]; Ki", "result": "68.2 ± 2.86", "unit": "µM"}, {"measurement": "ΔG^0 (Gibbs free energy of interaction)", "setting": "[1]", "result": -5.69, "unit": "kcal/mol"}, {"measurement": "Fold higher affinity than adenine", "setting": "[1]; ratio of Ki values", "result": 6, "unit": "fold"}, {"measurement": "Fold lower affinity than inosine and guanosine", "setting": "[1]; ratio of Ki values", "result": "about 20 fold"}, {"measurement": "δ(ΔG^0) relative to Adenine", "setting": "[1]", "result": -1.08, "unit": "kcal/mol"}, {"measurement": "δ(ΔG^0) relative to Adenine", "setting": "[1]; listed as adenosine", "result": 1.08, "unit": "kcal/mol"}, {"measurement": "Summation of the Gibbs free energy of the proposed interactions (binding model), Σ", "setting": "[1]", "result": -4.97, "unit": "kcal/mol"}, {"measurement": "Uptake of radiolabelled permeant in Tg244440 clones compared to empty vector", "setting": "[4]", "result": "No difference"}, {"measurement": "Km", "setting": "[5]; adenosine transport", "result": 120, "unit": "µM"}, {"measurement": "Km", "setting": "[5]; for its substrates", "result": "> 100", "unit": "µM"}, {"measurement": "Km", "setting": "[3]", "result": 0.49, "unit": "µM"}, {"measurement": "Km", "setting": "[6]", "result": "114 ± 37", "unit": "µM"}, {"measurement": "Km", "setting": "[7]", "result": "0.2 to 0.4", "unit": "µM"}, {"measurement": "Km", "setting": "[8]", "result": 49, "unit": "µM"}, {"measurement": "Km", "setting": "[9]", "result": "40 to 60", "unit": "µM"}]}
{"smiles": "Nc1nc2nc[nH]c2c(=O)[nH]1", "note": "[Guanine]", "values": [{"measurement": "Rate of [3H]-guanine uptake, +Tg244440", "setting": "[1]; [Permeant] 0.05 μM, over 60 s", "result": "0.037 ± 0.003 pmol(10^7 Cells)^−1s^−1"}, {"measurement": "Rate of [3H]-guanine uptake, +Tg244440", "setting": "[1]; [Permeant] 0.05 μM, over 60 s, listed as guanine", "result": "0.037 pmol(10^7 Cells)^−1s^−1"}, {"measurement": "Rate of [3H]-guanine uptake, +Tg244440", "setting": "[1]; [15]", "result": "0.00092 ± 0.00067 pmol(10^7 Cells)^−1s^−1"}, {"measurement": "Sum of δ(ΔG^0) for the 7-deaza and 9-deaza analogues", "setting": "[1]", "result": 14.2, "unit": "kJ/mol"}, {"measurement": "ΔG^0 (Gibbs free energy of interaction)", "setting": "[1]", "result": -8.05, "unit": "kcal/mol"}, {"measurement": "Rate of [3H]-guanine uptake, EV", "setting": "[10]; [Permeant] 0.05 μM, over 60 s", "result": "0.00059 pmol(10^7 Cells)^−1s^−1"}, {"measurement": "Rate of [3H]-guanine uptake, EV", "setting": "[10]; [15]", "result": "0.0015 ± 0.0002 pmol(10^7 Cells)^−1s^−1"}, {"measurement": "Uptake of radiolabelled permeant in Tg244440 clones compared to empty vector", "setting": "[11]", "result": "highly significant increases"}]}
{"smiles": "O=c1[nH]cnc2nc[nH]c12", "note": "[Hypoxanthine]", "values": [{"measurement": "Ki", "setting": "[1]; Ki", "result": "2.26 ± 0.36", "unit": "µM"}, {"measurement": "Sum of δ(ΔG^0) for the 7-deaza and 9-deaza analogues", "setting": "[1]", "result": 15.8, "unit": "kJ/mol"}, {"measurement": "ΔG^0 (Gibbs free energy of interaction)", "setting": "[1]", "result": -7.7, "unit": "kcal/mol"}, {"measurement": "δ(ΔG^0) relative to Guanine", "setting": "[1]; relative to Guanine", "result": 0.359, "unit": "kcal/mol"}, {"measurement": "Summation of the Gibbs free energy of the proposed interactions (binding model), Σ", "setting": "[1]", "result": -8.01, "unit": "kcal/mol"}, {"measurement": "Rate of [3H]-hypoxanthine uptake, +Tg244440", "setting": "[12]; [Permeant] 0.1 μM, over 60 s", "result": "0.048 ± 0.0004 pmol(10^7 Cells)^−1s^−1"}, {"measurement": "Rate of [3H]-hypoxanthine uptake, +Tg244440", "setting": "[12]; [16]", "result": "0.048 pmol(10^7 Cells)^−1s^−1"}, {"measurement": "Rate of [3H]-hypoxanthine uptake, +Tg244440", "setting": "[12]; [17]", "result": "−0.01 ± 0.01 pmol(10^7 Cells)^−1s^−1"}, {"measurement": "Slope of uptake in EV control lower than in +Tg244440 clone F5", "setting": "[10]; 0.10 µM [3H]-hypoxanthine over 60 s", "result": 86.2, "unit": "%"}, {"measurement": "Rate of [3H]-hypoxanthine uptake, EV", "setting": "[10]; [Permeant] 0.1 μM, over 60 s", "result": "0.0066 ± 0.0007 pmol(10^7 Cells)^−1s^−1"}, {"measurement": "Rate of [3H]-hypoxanthine uptake, EV", "setting": "[10]; [16]", "result": "0.0066 pmol(10^7 Cells)^−1s^−1"}, {"measurement": "Rate of [3H]-hypoxanthine uptake, EV", "setting": "[10]; [17]", "result": "0.00055 pmol(10^7 Cells)^−1s^−1"}, {"measurement": "Uptake of radiolabelled permeant in Tg244440 clones compared to empty vector", "setting": "[11]", "result": "highly significant increases"}, {"measurement": "Km", "setting": "[13]", "result": 0.91, "unit": "µM"}]}
{"smiles": "O=c1[nH]cnc2c1ncn2[C@@H]1O[C@H](CO)[C@@H](O)[C@H]1O", "note": "[Inosine]", "values": [{"measurement": "Ki", "setting": "[1]; Ki", "result": "4.05 ± 1.37", "unit": "µM"}, {"measurement": "ΔG^0 (Gibbs free energy of interaction)", "setting": "[1]", "result": -7.36, "unit": "kcal/mol"}, {"measurement": "δ(ΔG^0) relative to Hypoxanthine", "setting": "[1]; relative to Hypoxanthine", "result": 0.335, "unit": "kcal/mol"}, {"measurement": "Km", "setting": "[5]; for its substrates", "result": "> 100", "unit": "µM"}, {"measurement": "Km", "setting": "[3]", "result": 0.77, "unit": "µM"}, {"measurement": "Km", "setting": "[14]", "result": 81, "unit": "µM"}]}
